Results taken from patent US4008323A, “Method of reducing cholesterol using certain aromatic keto acids” (Pierre Fabre S.A., priority 1974, dated 1977).
Like-named read-outs stand apart in the source and are kept apart here.

What was measured:
Solubility properties = format: physicochemical; conditions: for Solubility in ethyl alcohol: ethyl alcohol / ethanol / alcohol
total blood cholesterol = assay: Total blood cholesterol in rats on a normal diet (hypocholesterolemizing); format: in vivo; conditions: 300 mg/kg oral, 4 consecutive days; 5th day, fasted 16 hours
Method: One lot of rats served as control.
The sampling was effected on the 5th day after 16 hours fasting, by cardiac puncture and the total blood cholesterol determination was effected by the Liebermann-Burchardt colorimetric method.

[1] = Acute toxicity in mice, oral LD50 (method of Miller & Tainter); conditions: mouse, in vivo, mortality determined 48 hours after administration
Method: The chemical compounds previously described were submitted to toxicity tests. It was determined in mice by oral administration and was calculated in accordance with the method of MILLER & TAINTER. It is generally low and greater than 1000 mg/kg.

carrageenin edema = assay: Carrageenin edema test in rats (antiinflammatory); format: in vivo; conditions: for change in vivo at 300 mg/kg / change in vivo at 75 mg/kg / change in vivo at 200 mg/kg / change in vivo at 30 mg/kg / change in vivo at 50 mg/kg / change in vivo at 100 mg/kg: Rattus norvegicus; for change in vivo at 300 mg/kg: 300 mg/kg oral; for % var. / action (variation of paw volume increase vs controls) / change in vivo at 75 mg/kg: 75 mg/kg oral
Method: The antiinflammatory properties were shown by the carrageenin edema test in rats, the products having been administered orally 1 hour before the intrapodal injection of 0.05 ml of a 2% suspension of carrageenin; the volume of the rat's paw was measured by plethysmoscopy 3, 4 and 6 hours afterwards.
The experiment concerned for each lot […]; one lot of animals receiving only the vehicle (2 ml/100 g of Tween + water) which served for the administration of the products, constituted the control lot. The following table sets forth the results obtained: […]

[2] = test system: writhings induced by phenylbenzoquinone; assay: Writhing test, phenylbenzoquinone (analgetic); format: in vivo, mice; conditions: 300 mg/kg oral, t + 35 to t + 40 min
Method: The analgetic properties of certain compounds were shown in mice by the "writhing test" method, that is to say with reference to the writhings induced by phenylbenzoquinone. The administration of the product is effected orally at time t; it is followed by the intraperitoneal injection of 0.2% phenylbenzoquinone at t + 30 min. The determination of the writhings is effected from t + 35 min. to t + 40 min. One lot of animals receiving only the vehicle (5% Tween 80 in 0.9% NaCl) serves as control.

[3] = test system: writhings induced by acetic acid; assay: Writhing test, acetic acid (analgetic); format: in vivo, male mouse; conditions: 200 mg/kg by mouth, t + 60 to t + 70 min
Method: The administration of the compounds is effected by mouth at the time t. […] The determination of the writhings is effected from t + 60 min. to t + 70 min. The vehicle used for the administration of the products is a 5% solution of Tween 80 in 0.9% NaCl which will serve as control.

[4] = read-out: % mean variation of the volume of the paw at 3, 4 and 6 hrs
[5] = 3 hrs, read-out: % increase in volume of the paw, mean (m)
[6] = 4 hrs, read-out: % increase in volume of the paw, mean (m)
[7] = 6 hrs, read-out: % increase in volume of the paw, mean (m)
[8] = 200 mg/kg oral, + 3 hrs, read-out: % increase in volume of the paw, mean (m)
[9] = 200 mg/kg oral, + 3 hrs, read-out: Action (variation of paw volume increase vs controls)
[10] = 200 mg/kg oral, + 4 hrs, read-out: % increase in volume of the paw, mean (m)
[11] = 200 mg/kg oral, + 4 hrs, read-out: Action (variation of paw volume increase vs controls)
[12] = 200 mg/kg oral, + 6 hrs, read-out: % increase in volume of the paw, mean (m)
[13] = 200 mg/kg oral, + 6 hrs, read-out: Action (variation of paw volume increase vs controls)

C=C(CC(=O)c1ccc(F)cc1)C(=O)O [F 1376, 2-methylene 4-oxo 4-fluorophenyl butyric acid]
Solubility in ethyl alcohol (Solubility properties): 20% | Solubility in propylene glycol (Solubility properties; propylene glycol): 10% | Solubility in water (Solubility properties; water, in words): insoluble | Total blood cholesterol, M (total blood cholesterol): 0,66 | LD50 at 48 h [1]: 1400 mg/kg | change in vivo at 300 mg/kg (carrageenin edema; + 3 hrs, read-out: % increase in volume of the paw, mean (m)): 50.8% | change in vivo at 300 mg/kg (carrageenin edema; + 3 hrs, read-out: Action (variation of paw volume increase vs controls)): -17% | change in vivo at 300 mg/kg (carrageenin edema; + 4 hrs, read-out: % increase in volume of the paw, mean (m)): 51.5% | change in vivo at 300 mg/kg (carrageenin edema; + 4 hrs, read-out: Action (variation of paw volume increase vs controls)): -15% | change in vivo at 300 mg/kg (carrageenin edema; + 6 hrs, read-out: % increase in volume of the paw, mean (m)): 54.8% | change in vivo at 300 mg/kg (carrageenin edema; + 6 hrs, read-out: Action (variation of paw volume increase vs controls)): -4% | change in vivo at 300 mg/kg (carrageenin edema; [4]): -12%

C=C(CC(=O)c1ccc(-c2ccccc2)cc1)C(=O)O [F 1377, 2-methylene 4-oxo 4-(paraphenylphenyl) butyric acid]
Solubility in N-methyl pyrrolidone (Solubility properties): 15% | Solubility in dimethyl sulfoxide (Solubility properties): 10% | Solubility in ether (Solubility properties; in words): insoluble | Solubility in propylene glycol (in words) (Solubility properties; propylene glycol, in words): insoluble | Solubility in water in the form of sodium salt (in words) (Solubility properties; sodium salt, water, in words): insoluble | Solubility in water (Solubility properties; water, in words): insoluble | % Decrease (of writhings) [2]: 68,6% | Mean No. of Writhings [2]: 8,00 | LD50 at 48 h [1]: > 2000 mg/kg | % var. / action (variation of paw volume increase vs controls) (carrageenin edema; 3 hrs): -37% | % var. / action (variation of paw volume increase vs controls) (carrageenin edema; 4 hrs): -37% | % var. / action (variation of paw volume increase vs controls) (carrageenin edema; 6 hrs): -18% | change in vivo at 75 mg/kg (carrageenin edema; [5]): 28.8% | change in vivo at 75 mg/kg (carrageenin edema; [6]): 30.5% | change in vivo at 75 mg/kg (carrageenin edema; [7]): 37.2% | change in vivo at 75 mg/kg (carrageenin edema; [4]): -30% | change in vivo at 200 mg/kg (carrageenin edema; [8]): 27.4% | change in vivo at 200 mg/kg (carrageenin edema; [9]): -46% | change in vivo at 200 mg/kg (carrageenin edema; [10]): 28% | change in vivo at 200 mg/kg (carrageenin edema; [11]): -43% | change in vivo at 200 mg/kg (carrageenin edema; [12]): 28.4% | change in vivo at 200 mg/kg (carrageenin edema; [13]): -32% | change in vivo at 200 mg/kg (carrageenin edema; 200 mg/kg oral, read-out: % mean variation of the volume of the paw at 3, 4 and 6 hrs): -40%

C=C(CC(=O)c1ccc(-c2ccccc2Cl)cc1)C(=O)O [F 1379, 2-methylene 4-oxo 4-(4'-orthochlorophenylphenyl) butyric acid]
% Decrease (of writhings) [3]: 18,4% | Mean No. of Writhings [3]: 31,8 | Solubility in NN-dimethyl acetamide (Solubility properties): 25% | Solubility in dimethyl sulfoxide (Solubility properties): 20% | Solubility in ethyl alcohol (Solubility properties): 1% | Solubility in water (Solubility properties; water, in words, listed as Example 6): insoluble | Total blood cholesterol, M (total blood cholesterol): 0,62 | LD50 at 48 h [1]: 1500 mg/kg | % increase in volume of the paw, cumulative (m) (carrageenin edema; 30 mg/kg oral): 179,6% | Action, cumulative (carrageenin edema; 30 mg/kg oral): -11,7% | % increase in volume of the paw, cumulative (m) (carrageenin edema; 50 mg/kg oral): 106,1% | Action, cumulative (carrageenin edema; 50 mg/kg oral): -44,4% | % increase in volume of the paw, cumulative (m) (carrageenin edema; 100 mg/kg oral): 83,6% | Action, cumulative (carrageenin edema; 100 mg/kg oral): -56,2% | % increase in volume of the paw, cumulative (m) (carrageenin edema; 200 mg/kg oral): 77,5% | Action, cumulative (carrageenin edema; 200 mg/kg oral): -59,4% | change in vivo at 30 mg/kg (carrageenin edema; 30 mg/kg oral, + 3 hrs, read-out: % increase in volume of the paw, mean (m)): 58.4% | change in vivo at 30 mg/kg (carrageenin edema; 30 mg/kg oral, + 3 hrs, read-out: Action (variation of paw volume increase vs controls)): -17.6% | change in vivo at 30 mg/kg (carrageenin edema; 30 mg/kg oral, + 4 hrs, read-out: % increase in volume of the paw, mean (m)): 60.1% | change in vivo at 30 mg/kg (carrageenin edema; 30 mg/kg oral, + 4 hrs, read-out: Action (variation of paw volume increase vs controls)): -9.6% | change in vivo at 30 mg/kg (carrageenin edema; 30 mg/kg oral, + 6 hrs, read-out: % increase in volume of the paw, mean (m)): 61.1% | change in vivo at 30 mg/kg (carrageenin edema; 30 mg/kg oral, + 6 hrs, read-out: Action (variation of paw volume increase vs controls)): -7% | change in vivo at 50 mg/kg (carrageenin edema; 50 mg/kg oral, + 3 hrs, read-out: % increase in volume of the paw, mean (m)): 24.4% | change in vivo at 50 mg/kg (carrageenin edema; 50 mg/kg oral, + 3 hrs, read-out: Action (variation of paw volume increase vs controls)): -58.2% | change in vivo at 50 mg/kg (carrageenin edema; 50 mg/kg oral, + 4 hrs, read-out: % increase in volume of the paw, mean (m)): 34.4% | change in vivo at 50 mg/kg (carrageenin edema; 50 mg/kg oral, + 4 hrs, read-out: Action (variation of paw volume increase vs controls)): -47% | change in vivo at 50 mg/kg (carrageenin edema; 50 mg/kg oral, + 6 hrs, read-out: % increase in volume of the paw, mean (m)): 47.4% | change in vivo at 50 mg/kg (carrageenin edema; 50 mg/kg oral, + 6 hrs, read-out: Action (variation of paw volume increase vs controls)): -29.7% | change in vivo at 100 mg/kg (carrageenin edema; 100 mg/kg oral, + 3 hrs, read-out: % increase in volume of the paw, mean (m)): 18.7% | change in vivo at 100 mg/kg (carrageenin edema; 100 mg/kg oral, + 3 hrs, read-out: Action (variation of paw volume increase vs controls)): -67.9% | change in vivo at 100 mg/kg (carrageenin edema; 100 mg/kg oral, + 4 hrs, read-out: % increase in volume of the paw, mean (m)): 26.1% | change in vivo at 100 mg/kg (carrageenin edema; 100 mg/kg oral, + 4 hrs, read-out: Action (variation of paw volume increase vs controls)): -59.9% | change in vivo at 100 mg/kg (carrageenin edema; 100 mg/kg oral, + 6 hrs, read-out: % increase in volume of the paw, mean (m)): 38.8% | change in vivo at 100 mg/kg (carrageenin edema; 100 mg/kg oral, + 6 hrs, read-out: Action (variation of paw volume increase vs controls)): -42.5% | change in vivo at 200 mg/kg (carrageenin edema; [8]): 19.6% | change in vivo at 200 mg/kg (carrageenin edema; [9]): -66.4% | change in vivo at 200 mg/kg (carrageenin edema; [10]): 25.1% | change in vivo at 200 mg/kg (carrageenin edema; [11]): -61.3% | change in vivo at 200 mg/kg (carrageenin edema; [12]): 32.8% | change in vivo at 200 mg/kg (carrageenin edema; [13]): -51.3%

CC(=CC(=O)c1ccc(-c2ccccc2Cl)cc1)C(=O)O [F 1439, 2-methyl 4-oxo 4-(4'-O-chlorophenylphenyl) 2-butenoic acid]
Solubility in N-methyl pyrrolidone (Solubility properties): 25% | Solubility in chloroform (in words) (Solubility properties; chloroform, in words): Soluble | Solubility in NN-dimethyl acetamide (Solubility properties): 20% | Solubility in ether (Solubility properties; in words): Soluble | Solubility in water (Solubility properties; water, in words): insoluble | Total blood cholesterol, M (total blood cholesterol): 0,67 | LD50 at 48 h [1]: 2370 mg/kg | % var. / action (variation of paw volume increase vs controls) (carrageenin edema; 3 hrs): -36% | % var. / action (variation of paw volume increase vs controls) (carrageenin edema; 4 hrs): -33% | % var. / action (variation of paw volume increase vs controls) (carrageenin edema; 6 hrs): -28% | change in vivo at 75 mg/kg (carrageenin edema; [5]): 38% | change in vivo at 75 mg/kg (carrageenin edema; [6]): 40% | change in vivo at 75 mg/kg (carrageenin edema; [7]): 40% | change in vivo at 75 mg/kg (carrageenin edema; [4]): -32%
